ChEMBL document CHEMBL4359931, “Synthesis, biological evaluation and molecular docking studies of new amides of 4-bromothiocolchicine as anticancer agents” (Bioorg Med Chem, 2019)
pIC50: −log10 of the molar value. Calls of active or inactive are those of the source. The calls are words filed in the database; no cut-off is given here.

Assays:
[1] = Selectivity index, ratio of IC50 of mouse BALB/3T3 cells to IC50 of human LoVo cells; type: toxicity; conditions: BALB/3T3 cells versus LoVo cells, read-out: Ratio IC50
BALB/3T3 = test: Antiproliferative activity against mouse BALB/3T3 cells assessed as reduction in cell viability incubated for 120 hrs by MTT assay; type: cell-based; conditions: BALB/3T3, 120 h
MCF7 [2] = test: Cell cycle arrest in human MCF7 cells assessed as accumulation in subG1 phase at 5 times of antiproliferative IC50 incubated for 48 hrs by propidium iodide based flow cytometry (reference value: 9.19 %); type: functional
MCF7 [3] = test: Cell cycle arrest in human MCF7 cells assessed as accumulation in G1 phase at 5 times of antiproliferative IC50 incubated for 48 hrs by propidium iodide based flow cytometry (reference value: 40.8 %); type: functional
[4] = Cell cycle arrest in human ALL5 cells assessed as accumulation in G2 phase at 5 times of antiproliferative IC50 incubated for 72 hrs by propidium iodide based flow cytometry (reference value: 11.3 %); type: functional
[5] = Cell cycle arrest in human ALL5 cells assessed as accumulation in G2 phase at 5 times of antiproliferative IC50 incubated for 24 hrs by propidium iodide based flow cytometry (reference value: 10.6 %); type: functional
MCF7 [6] = test: Cell cycle arrest in human MCF7 cells assessed as accumulation in G2 phase at 5 times of antiproliferative IC50 incubated for 48 hrs by propidium iodide based flow cytometry (reference value: 16 %); type: functional
MCF7 [7] = test: Cell cycle arrest in human MCF7 cells assessed as accumulation in S phase at 5 times of antiproliferative IC50 incubated for 48 hrs by propidium iodide based flow cytometry (reference value: 34 %); type: functional
MCF7 [8] = test: Cell cycle arrest in human MCF7 cells assessed as accumulation in G1 phase at 5 times of antiproliferative IC50 incubated for 72 hrs by propidium iodide based flow cytometry (reference value: 58 %); type: functional
[9] = Selectivity index, ratio of IC50 of mouse BALB/3T3 cells to IC50 of human LoVo/DX cells; type: toxicity; conditions: BALB/3T3 cells versus LoVo/DX cells, read-out: Ratio IC50
[10] = Antiproliferative activity against human LoVo/DX cells assessed as reduction in cell viability incubated for 120 hrs by MTT assay; type: functional, cell-based
[11] = Selectivity index, ratio of IC50 of mouse BALB/3T3 cells to IC50 of human ALL5 cells
MCF7 [12] = test: Cell cycle arrest in human MCF7 cells assessed as accumulation in S phase at 5 times of antiproliferative IC50 incubated for 24 hrs by propidium iodide based flow cytometry (reference value: 19.9 %); type: functional
MCF7 [13] = test: Antiproliferative activity against human MCF7 cells assessed as reduction in cell viability incubated for 120 hrs by MTT assay; type: functional, cell-based; conditions: MCF7, 120 h
[14] = Cell cycle arrest in human ALL5 cells assessed as accumulation in G2 phase at 5 times of antiproliferative IC50 incubated for 48 hrs by propidium iodide based flow cytometry (reference value: 11.2 %); type: functional
[15] = Selectivity index, ratio of IC50 of mouse BALB/3T3 cells to IC50 of human MCF7 cells; type: toxicity; conditions: BALB/3T3 cells versus MCF7 cells, read-out: Ratio IC50
MCF7 [16] = test: Cell cycle arrest in human MCF7 cells assessed as accumulation in subG1 phase at 5 times of antiproliferative IC50 incubated for 24 hrs by propidium iodide based flow cytometry (reference value: 7.79 %); type: functional
LoVo = test: Antiproliferative activity against human LoVo cells assessed as reduction in cell viability incubated for 120 hrs by MTT assay; type: functional, cell-based
[17] = Cell cycle arrest in human ALL5 cells assessed as accumulation in S phase at 5 times of antiproliferative IC50 incubated for 24 hrs by propidium iodide based flow cytometry (reference value: […]); type: functional
[18] = Cell cycle arrest in human ALL5 cells assessed as accumulation in S phase at 5 times of antiproliferative IC50 incubated for 72 hrs by propidium iodide based flow cytometry (reference value: 13.5 %); type: functional
Homo sapiens [19] = organism: Homo sapiens; test: Induction of cell death in human ALL5 cells assessed as decrease in 4 N DNA at 5 times of antiproliferative IC50 incubated for 72 hrs by propidium iodide based flow cytometry; type: functional
A549 = test: Antiproliferative activity against human A549 cells assessed as reduction in cell viability incubated for 120 hrs by MTT assay; type: functional, cell-based; conditions: A549, 120 h
MCF7 [20] = test: Cell cycle arrest in human MCF7 cells assessed as accumulation in G2 phase at 5 times of antiproliferative IC50 incubated for 24 hrs by propidium iodide based flow cytometry (reference value: 22.4 %); type: functional
[21] = Cell cycle arrest in human ALL5 cells assessed as accumulation in G1 phase at 5 times of antiproliferative IC50 incubated for 24 hrs by propidium iodide based flow cytometry (reference value: 68.1 %); type: functional
Homo sapiens [22] = organism: Homo sapiens; test: Induction of cell cycle arrest in human ALL5 cells assessed as increase in 4 N DNA at 5 times of antiproliferative IC50 incubated for 48 hrs by propidium iodide based flow cytometry; type: functional
MCF7 [23] = test: Cell cycle arrest in human MCF7 cells assessed as accumulation in subG1 phase at 5 times of antiproliferative IC50 incubated for 72 hrs by propidium iodide based flow cytometry (reference value: 3.59 %); type: functional
MCF7 [24] = test: Cell cycle arrest in human MCF7 cells assessed as accumulation in G1 phase at 5 times of antiproliferative IC50 incubated for 24 hrs by propidium iodide based flow cytometry (reference value: 49.9 %); type: functional
[25] = Antiproliferative activity against human ALL5 cells assessed as reduction in cell viability incubated for 120 hrs by MTT assay; type: functional, cell-based; conditions: ALL5, 120 h
MCF7 [26] = test: Cell cycle arrest in human MCF7 cells assessed as accumulation in G2 phase at 5 times of antiproliferative IC50 incubated for 72 hrs by propidium iodide based flow cytometry (reference value: 18.6 %); type: functional
[27] = Cell cycle arrest in human ALL5 cells assessed as accumulation in S phase at 5 times of antiproliferative IC50 incubated for 48 hrs by propidium iodide based flow cytometry (reference value: 10.3 %); type: functional
[28] = Cell cycle arrest in human ALL5 cells assessed as accumulation in subG1 phase at 5 times of antiproliferative IC50 incubated for 24 hrs by propidium iodide based flow cytometry (reference value: 10.5 %); type: functional
[29] = Cell cycle arrest in human ALL5 cells assessed as accumulation in G1 phase at 5 times of antiproliferative IC50 incubated for 48 hrs by propidium iodide based flow cytometry (reference value: 67.4 %); type: functional
[30] = Resistance index, ratio of IC50 of human LoVo/DX cells to IC50 of human LoVo cells; type: functional
MCF7 [31] = test: Cell cycle arrest in human MCF7 cells assessed as accumulation in S phase at 5 times of antiproliferative IC50 incubated for 72 hrs by propidium iodide based flow cytometry (reference value: 19.8 %); type: functional
[32] = Cell cycle arrest in human ALL5 cells assessed as accumulation in subG1 phase at 5 times of antiproliferative IC50 incubated for 72 hrs by propidium iodide based flow cytometry (reference value: 15.5 %); type: functional
[33] = Selectivity index, ratio of IC50 of mouse BALB/3T3 cells to IC50 of human A549 cells
[34] = Cell cycle arrest in human ALL5 cells assessed as accumulation in subG1 phase at 5 times of antiproliferative IC50 incubated for 48 hrs by propidium iodide based flow cytometry (reference value: 11 %); type: functional
[35] = Cell cycle arrest in human ALL5 cells assessed as accumulation in G1 phase at 5 times of antiproliferative IC50 incubated for 72 hrs by propidium iodide based flow cytometry (reference value: 59.7 %); type: functional
Homo sapiens [36] = organism: Homo sapiens; test: Induction of cell cycle arrest in human ALL5 cells assessed as increase in 4 N DNA at 5 times of antiproliferative IC50 incubated for 24 hrs by propidium iodide based flow cytometry; type: functional

SMILES	selectivity ratio [1]	pIC50 (BALB/3T3)	Activity (MCF7 [2])	Activity (MCF7 [3])	Activity [4]	Activity [5]	Activity (MCF7 [6])	Activity (MCF7 [7])	selectivity ratio [9]	pIC50 [10]	Ratio IC50 [11]	pIC50 (MCF7 [13])	selectivity ratio [15]	pIC50 (LoVo)	Activity (Homo sapiens [19])	pIC50 (A549)	Activity (Homo sapiens [22])	pIC50 [25]	Ratio IC50 [30]	Ratio IC50 [33]	also measured
CCC(=O)N[C@H]1CCc2c(Br)c(OC)c(OC)c(OC)c2-c2ccc(SC)c(=O)cc21	1.6	7.95	12.5%	15%	8.93%	17.2%	63.7%	8.78%	0.1	7.06	1.3	7.95	1	8.14	Active	7.98	Active	8.07	12.1	1.1	Activity (MCF7 [8]): 12.2%; Activity (MCF7 [12]): 7.61%; Activity [14]: 17.5%; Activity (MCF7 [16]): 6.15%; Activity [17]: 12.9%; Activity [18]: 19.5%; Activity (MCF7 [20]): 74.3%; Activity [21]: 52.4%; Activity (MCF7 [23]): 17.7%; Activity (MCF7 [24]): 12%; Activity (MCF7 [26]): 53.8%; Activity [27]: 14.5%; Activity [28]: 17.4%; Activity [29]: 35%; Activity (MCF7 [31]): 16.3%; Activity [32]: 45.8%; Activity [34]: 33%; Activity [35]: 25.7%; Activity (Homo sapiens [36]): Active
COc1c(Br)c2c(c(OC)c1OC)-c1ccc(OC)c(=O)cc1[C@@H](NC(C)=O)CC2	1.7	6.85	12.1%	12.5%	11.2%	16.9%	60.8%	14.6%	0.1	5.81	24.1	7.58	5.3	7.08	Active	6.98	Active	8.23	18.7	1.4	Activity (MCF7 [8]): 13.2%; Activity (MCF7 [12]): 7.97%; Activity [14]: 18.6%; Activity (MCF7 [16]): 7.37%; Activity [17]: 14.8%; Activity [18]: 22.2%; Activity (MCF7 [20]): 74.9%; Activity [21]: 51.2%; Activity (MCF7 [23]): 16.4%; Activity (MCF7 [24]): 9.79%; Activity (MCF7 [26]): 56.1%; Activity [27]: 20%; Activity [28]: 17.1%; Activity [29]: 35%; Activity (MCF7 [31]): 14.3%; Activity [32]: 39.7%; Activity [34]: 26.4%; Activity [35]: 26.9%
COc1c(Br)c2c(c(OC)c1OC)-c1ccc(SC)c(=O)cc1[C@@H](NC(=O)CCCCl)CC2	5.3	7.19	–	–	–	–	–	–	0.2	6.58	4.6	7.31	1.3	7.92	Active	7.27	Active	7.85	22.2	1.2	Activity (Homo sapiens [36]): Active
